Measurements reported in PubChem BioAssay (NCI).
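Five compound concentrations were applied to cells in 96-well plates for 48 hours; endpoints were derived by simple linear interpolation of the resulting dose-response curve. GI50 = concentration required for 50% inhibition of growth. TGI denotes the concentration required for complete inhibition of growth.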

What was measured:
Experiment in all cases: DTP human tumour cell line panel, 48 h
[1] = tested on: MALME-3M melanoma
[2] = tested on: UO-31 renal
[3] = tested on: MOLT-4 leukemia
[4] = tested on: SK-MEL-28 melanoma
[5] = tested on: K-562 leukemia
[6] = tested on: HL-60(TB) leukemia
[7] = tested on: HOP-92 NSCLC
[8] = tested on: HCC-2998 colon
[9] = tested on: NCI-H522 lung
[10] = tested on: UACC-62 melanoma
[11] = tested on: SNB-75 CNS
[12] = tested on: U251 CNS
[13] = tested on: TK-10 renal
[14] = tested on: COLO 205 colon
[15] = tested on: SF-539 CNS
[16] = tested on: HCT-116 colon
[17] = tested on: MDA-MB-435
[18] = tested on: SK-MEL-5 melanoma
[19] = tested on: SR leukemia
[20] = tested on: 786-0 renal
[21] = tested on: MDA-MB-231 breast
[22] = tested on: LOX IMVI melanoma
[23] = tested on: CCRF-CEM leukemia
[24] = tested on: UACC-257 melanoma
[25] = tested on: RPMI-8226 leukemia
[26] = tested on: SK-MEL-2 melanoma
[27] = tested on: M14 melanoma
[28] = tested on: NCI/ADR-RES ovarian
[29] = tested on: NCI-H460 lung
[30] = tested on: SW-620 colon
[31] = tested on: MCF7 breast
[32] = tested on: A498 renal
[33] = tested on: RXF 393 renal
[34] = tested on: OVCAR-3 ovarian
[35] = tested on: SK-OV-3 ovarian
[36] = tested on: OVCAR-4 ovarian
[37] = tested on: PC-3 prostate
[38] = tested on: OVCAR-8 ovarian
[39] = tested on: KM12 colon
[40] = tested on: IGROV1 ovarian
[41] = tested on: HOP-62 NSCLC
[42] = tested on: CAKI-1 renal
[43] = tested on: NCI-H23 lung
[44] = tested on: SF-268 CNS
[45] = tested on: NCI-H226 lung
[46] = tested on: ACHN renal
[47] = tested on: SF-295 CNS
[48] = tested on: EKVX NSCLC
[49] = tested on: DU-145 prostate
[50] = tested on: HS 578T breast
[51] = tested on: T-47D breast
[52] = tested on: SN12C renal
[53] = tested on: OVCAR-5 ovarian
[54] = tested on: A549 NSCLC
[55] = tested on: HCT-15 colon
[56] = tested on: SNB-19 CNS
[57] = tested on: HT29 colon
[58] = tested on: BT-549 breast

Compound `CC1COc2c(N3CCN(C)CC3)c(F)cc3c(=O)c(C(=O)N/N=C/c4cc[nH]c4)cn1c23` (configuration not stated) has a GI50 [1] of 1040 nM, a TGI [1] of 2570 nM and a GI50 [2] of 2710 nM. It also gave a TGI [2] greater than 100000 nM, a GI50 [3] of 502 nM and a TGI [3] of 2100 nM. It also gave a GI50 [4] of 1470 nM, a TGI [4] of 2830 nM and a GI50 [5] of 699 nM. It also gave a TGI [5] of 2350 nM, a GI50 [6] of 674 nM and a TGI [6] of 2590 nM. The GI50 [7] was 497 nM, the TGI [7] was 36000 nM and the GI50 [8] was 518 nM. The TGI [8] was 1890 nM, the GI50 [9] was 1240 nM and the TGI [9] was 2640 nM. The GI50 [10] was 1700 nM, the TGI [10] was 3160 nM and the GI50 [11] was 1480 nM. For the same compound, the TGI [11] was 3470 nM, the GI50 [12] was 614 nM and the TGI [12] was 1980 nM. It also gave a GI50 [13] of 5400 nM, a TGI [13] of 96100 nM and a GI50 [14] of 1270 nM. It also gave a TGI [14] of 2600 nM, a GI50 [15] of 1280 nM and a TGI [15] of 2610 nM. For the same compound, the GI50 [16] was 712 nM, the TGI [16] was 2000 nM and the GI50 [17] was 1520 nM. The TGI [17] was 2910 nM, the GI50 [18] was 1400 nM and the TGI [18] was 2710 nM. The GI50 [19] was 841 nM, the TGI [19] was 3160 nM and the GI50 [20] was 1420 nM. The TGI [20] was 2850 nM, the GI50 [21] was 1480 nM and the TGI [21] was 3000 nM. For the same compound, the GI50 [22] was 715 nM, the TGI [22] was 2070 nM and the GI50 [23] was 959 nM. It also gave a TGI [23] of 2790 nM, a GI50 [24] of 1640 nM and a TGI [24] of 3120 nM. For the same compound, the GI50 [25] was 2190 nM, the TGI [25] was 4580 nM and the GI50 [26] was 1570 nM. For the same compound, the TGI [26] was 3010 nM, the GI50 [27] was 1670 nM and the TGI [27] was 3120 nM. For the same compound, the GI50 [28] was greater than 100000 nM, the TGI [28] was greater than 100000 nM and the GI50 [29] was 767 nM. For the same compound, the TGI [29] was 2080 nM, the GI50 [30] was 1300 nM and the TGI [30] was 2620 nM. The GI50 [31] was 417 nM, the TGI [31] was 1650 nM and the GI50 [32] was 2220 nM. For the same compound, the TGI [32] was greater than 100000 nM, the GI50 [33] was 1060 nM and the TGI [33] was 2350 nM.

Work on `COc1ccc(C(C)=C(c2ccc(OCCN3CCCCCC3)cc2)c2ccc(OCCN3CCCCCC3)cc2)cc1` yielded a GI50 [34] of 1870 nM, a TGI [34] of 4070 nM and a GI50 [1] of 300 nM. The TGI [1] was 616 nM, the GI50 [2] was 1780 nM and the TGI [2] was 3970 nM. The GI50 [3] was 436 nM, the TGI [3] was 1290 nM and the GI50 [35] was 2550 nM. It also gave a TGI [35] of 5230 nM, a GI50 [4] of 312 nM and a TGI [4] of 593 nM. For the same compound, the GI50 [5] was 338 nM, the TGI [5] was 825 nM and the GI50 [6] was 1020 nM. It also gave a TGI [6] of 2320 nM, a GI50 [7] of 843 nM and a TGI [7] of 3890 nM. For the same compound, the GI50 [8] was 540 nM, the TGI [8] was 2000 nM and the GI50 [9] was 2650 nM. It also gave a TGI [9] of 6100 nM, a GI50 [10] of 869 nM and a TGI [10] of 2050 nM. For the same compound, the GI50 [11] was 2060 nM, the TGI [11] was 5230 nM and the GI50 [12] was 524 nM. The TGI [12] was 1830 nM, the GI50 [36] was 2430 nM and the TGI [36] was 5900 nM. For the same compound, the GI50 [37] was 1720 nM, the TGI [37] was 4820 nM and the GI50 [13] was 3120 nM. For the same compound, the TGI [13] was 6730 nM, the GI50 [14] was 375 nM and the TGI [14] was 948 nM. It also gave a GI50 [38] of 2620 nM, a TGI [38] of 6820 nM and a GI50 [15] of 1020 nM. The TGI [15] was 2990 nM, the GI50 [39] was 1220 nM and the TGI [39] was 4010 nM. It also gave a GI50 [16] of 369 nM, a TGI [16] of 1110 nM and a GI50 [17] of 422 nM. It also gave a TGI [17] of 1170 nM, a GI50 [18] of 1310 nM and a TGI [18] of 3470 nM. For the same compound, the GI50 [19] was 306 nM, the TGI [19] was 773 nM and the GI50 [40] was 1870 nM. The TGI [40] was 4280 nM, the GI50 [41] was 1070 nM and the TGI [41] was 3490 nM. For the same compound, the GI50 [42] was 1390 nM, the TGI [42] was 3730 nM and the GI50 [43] was 2670 nM. The TGI [43] was 9520 nM, the GI50 [20] was 606 nM and the TGI [20] was 1550 nM. It also gave a GI50 [44] of 1710 nM, a TGI [44] of 5070 nM and a GI50 [45] of 2320 nM. It also gave a TGI [45] of 5330 nM, a GI50 [46] of 2090 nM and a TGI [46] of 4370 nM. It also gave a GI50 [47] of 447 nM, a TGI [47] of 1310 nM and a GI50 [21] of 1360 nM. For the same compound, the TGI [21] was 3950 nM, the GI50 [22] was 177 nM and the TGI [22] was 427 nM. The GI50 [48] was 2340 nM, the TGI [48] was 7200 nM and the GI50 [49] was 2280 nM. For the same compound, the TGI [49] was 5730 nM, the GI50 [23] was 503 nM and the TGI [23] was 4320 nM. The GI50 [50] was 1120 nM, the TGI [50] was 4560 nM and the GI50 [24] was 587 nM. The TGI [24] was 1590 nM, the GI50 [25] was 443 nM and the TGI [25] was 1090 nM. The GI50 [26] was 2950 nM, the TGI [26] was 6340 nM and the GI50 [51] was 628 nM. For the same compound, the TGI [51] was 4550 nM, the GI50 [52] was 2090 nM and the TGI [52] was 4800 nM. The GI50 [53] was 2440 nM, the TGI [53] was 8260 nM and the GI50 [54] was 1230 nM. It also gave a TGI [54] of 3850 nM, a GI50 [27] of 270 nM and a TGI [27] of 515 nM. The GI50 [55] was 488 nM, the TGI [55] was 1970 nM and the GI50 [28] was 2070 nM. The TGI [28] was 4550 nM, the GI50 [29] was 635 nM and the TGI [29] was 2180 nM. The GI50 [56] was 1360 nM, the TGI [56] was 4020 nM and the GI50 [30] was 450 nM. The TGI [30] was 1480 nM, the GI50 [31] was 177 nM and the TGI [31] was 579 nM. The GI50 [32] was 2200 nM, the TGI [32] was 4410 nM and the GI50 [33] was 646 nM. For the same compound, the TGI [33] was 2560 nM, the GI50 [57] was 545 nM and the TGI [57] was 2100 nM. The GI50 [58] was 2030 nM and the TGI [58] was 4210 nM.
